Results published in publication PMC8123555, “Precision targeting of the plasminogen activator inhibitor‐1 mechanism increases efficacy of fibrinolytic therapy in empyema” (Physiological Reports, 2021).
Read-outs that look alike come from different tables or passages of the source. Where no end group is shown, it is not given here.

Experiments:
PAI‐1 = settings: alanine mutations of positively charged residues in the 37-loop; ref Benedict et al., 1995; Florova et al., 2018; Keyt et al., 1994; cited from earlier work
Source text: Plasminogen Activator Inhibitor‐1 (PAI‐1) is a mechanism‐based inhibitor of tissue type (tPA) and urokinase (uPA) plasminogen activators (PAs) (Carrell et al., 1991; Chaillan‐Huntington et al., 1997; Mourik et al., 1984) used for fibrinolytic therapy. Levels of PAI‐1 increase by up to three orders of magnitude in empyema (pleural sepsis), and organizing pleural injury (Aleman et al., 2003; Chung et al., 2005; Philip‐Joet et al., 1995), limiting endogenous and exogenous plasminogen activating activity that could help prevent or treat uncontrolled fibrin deposition induced by inflammation. Previ ...

[1] = rabbit, in vivo
Procedure: All animal procedures were approved by the Institutional Animal Care and Use Committee at The University of Texas Health Science Center at Tyler (IACUC protocols 499,616,617). Studies used female, pathogen‐free New Zealand white rabbits (3.0–3.6 kg; average age 18 weeks) from Charles River Laboratories (Wilmington, MA). These studies required a total of 107 rabbits, 43 for the model of TCN‐induced pleural injury and 64 for the model of empyema. […] Briefly, a 3 ml mixture of TCN in ascorbic acid (20 mg/ml TCN (T3258, Sigma‐Aldrich), 2.5 mg/ml ascorbic acid (A7506, Sigma‐Aldrich) and lidocaine (1 mg/ml, UTHCT Compounding Pharmacy), was delivered by intrapleural injection. A model of acute empyema in rabbits was induced as described previously (Komissarov et al., 2016). Briefly, 1–5 × 10^8 cfu of S. pneumoniae (D39 strain, National Collection of Type Cultures, Salisbury UK) in 3 ml of 0.5% brain‐heart infusion agar (BD 238400, BD Diagnostic Systems) was delivered by intrapleural injection. Clavomox (10 mg/kg, subcutaneous, daily for 1–3 days as clinically indicated by Attending Veterinarian) (10000485, Zoetis) was started at 28–30 h post‐infection. Accumulation of pleural fluid and fibrin deposition was monitored using ultrasonography; detailed in the ultrasonography subsection. After 48 or 72 h for TCN‐induced pleural injury and empyema, respectively, intrapleural therapeutics were administered depending on treatment group via an 18‐gauge catheter, which was flushed with 0.5 ml PBS. In all experiments, samples of pleural fluids (0.5 ml) from each rabbit were collected prior to and at 10, 20, and 40 min after PAI‐1‐TFT and processed for later analysis (Florova et al., 2015; Karandashova et al., 2013; Komissarov et al., 2013, 2016). […] Animals were monitored carefully for signs of distress, pain, and worsening clinical status. […]
The residual DSP in pleural fluid samples was determined using LC MS/MS. […]

in vivo = settings: rabbit
Procedure: All animal procedures were approved by the Institutional Animal Care and Use Committee at The University of Texas Health Science Center at Tyler (IACUC protocols 499,616,617). Studies used female, pathogen‐free New Zealand white rabbits (3.0–3.6 kg; average age 18 weeks) from Charles River Laboratories (Wilmington, MA). These studies required a total of 107 rabbits, 43 for the model of TCN‐induced pleural injury and 64 for the model of empyema. […] Briefly, a 3 ml mixture of TCN in ascorbic acid (20 mg/ml TCN (T3258, Sigma‐Aldrich), 2.5 mg/ml ascorbic acid (A7506, Sigma‐Aldrich) and lidocaine (1 mg/ml, UTHCT Compounding Pharmacy), was delivered by intrapleural injection. A model of acute empyema in rabbits was induced as described previously (Komissarov et al., 2016). Briefly, 1–5 × 10^8 cfu of S. pneumoniae (D39 strain, National Collection of Type Cultures, Salisbury UK) in 3 ml of 0.5% brain‐heart infusion agar (BD 238400, BD Diagnostic Systems) was delivered by intrapleural injection. Clavomox (10 mg/kg, subcutaneous, daily for 1–3 days as clinically indicated by Attending Veterinarian) (10000485, Zoetis) was started at 28–30 h post‐infection. Accumulation of pleural fluid and fibrin deposition was monitored using ultrasonography; detailed in the ultrasonography subsection. After 48 or 72 h for TCN‐induced pleural injury and empyema, respectively, intrapleural therapeutics were administered depending on treatment group via an 18‐gauge catheter, which was flushed with 0.5 ml PBS. In all experiments, samples of pleural fluids (0.5 ml) from each rabbit were collected prior to and at 10, 20, and 40 min after PAI‐1‐TFT and processed for later analysis (Florova et al., 2015; Karandashova et al., 2013; Komissarov et al., 2013, 2016). Anesthesia, postoperative pain medication, and animal care were provided as reported previously (Florova et al., 2015; Karandashova et al., 2013; Komissarov et al., 2013, 2016). with details provided in the supplement. Animals were monitored carefully for signs of distress, pain, and worsening clinical status. Euthanasia was accomplished using intravenous injection of 1 ml of commercial euthanasia solution (sodium pentobarbital 390 mg/ml and phenytoin 50 mg/ml) followed by exsanguination.
The residual DSP in pleural fluid samples was determined using LC MS/MS. Briefly, collected samples were extracted using acetonitrile, cleaned with Microcon centrifugal filters (MRCPRT010, MilliporeSigma) and injected via autosampler onto a Pinnacle DB C8 Column (9413332, Restek) reverse‐phase column operated at a flow rate of 200 μl/min. A gradient elution method using solvent A (99% H2O, 1% acetonitrile, 0.05% TFA) for 5 min, a gradient to 100% solvent B (1% H2O, 99% acetonitrile, 0.05% TFA) over 25 min, and 100% solvent B for 2 min was employed. […]

[2] = rabbit, in vivo; remark: listed apart in the source
Procedure: (§1) FIGURE 7 Low dose PAI‐1‐TFT induces no intrapleural bleeding. Pleural fluids from rabbits with TCN‐induced (a) or S. pneumoniae‐induced (b) pleural injury were collected at necropsy and red blood cells (RBC) were counted using a Beckman Coulter. (a) Animals with TCN‐induced pleural injury were treated (from left to right) with vehicle control (n = 6); 62.5 µg/kg of scuPA alone (n = 6); and with 2.0 mg/kg DSP (n = 6); 72.5 µg/kg of sctPA alone (n = 5), and with 2.0 mg/kg DSP (n = 6). (b) Animals with infectious pleural injury were treated (from left to right) with vehicle control (n = 6); 0.25 mg/kg of sctPA alone (n = 5), and with 8.0 mg/kg DSP (n = 6), 0.5 mg/kg of sctPA alone (n = 6), and with 8.0 mg/kg DSP (n = 6), 0.5 mg/kg of scuPA alone (n = 9), and with 8.0 mg/kg DSP (n = 3). […] Data are presented as box and whisker plots (all points shown)

[3] = Intrapleural bleeding, pleural fluid RBC counts, empyema; type: in vivo, rabbit
Procedure: as §1

Substance | Rate of reaction with PAI-1 relative to the WT enzymes (PAI‐1) | Apparent first order rate constant of DSP clearance (kclr), slower phase [1] [min⁻¹] | DSP in pleural fluid at 24 h [1] | Presence of DSP in pleural fluid after treatment [1] | level at 40 min (in vivo; female, New Zealand white, 8 mg/kg) [µg/mL] | Apparent first order rate constant of DSP clearance (kclr), slower phase (in vivo) [min⁻¹] | DSP in pleural fluid at 24 h (in vivo) | Presence of DSP in pleural fluid after treatment (in vivo) | Bleeding accompanying PAI-1-TFT [2] | Bleeding accompanying PAI-1-TFT ([3]; DSP with plasminogen activator, empyema) | Pleural fluid RBC counts ([3]; any dose of DSP alone or in combination with plasminogen activator, pleural fluid at necropsy, Beckman Coulter)
tenecteplase | almost two orders of magnitude slower | – | – | – | – | – | – | – | – | – | –
EEIIMD [DSP, EEIIMD] | – | 0.03 to 0.07 | No DSP was detected | over 40 min | > 300 | 0.03 to 0.07 | No DSP was detected | over 40 min | no apparent local or systemic bleeding | no apparent local or systemic bleeding | no statistical difference
